The source of these data is PubChem BioAssay (NCI).

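All cell lines were grown in 96-well plates and treated with compound for 48 hours. TGI is the concentration that stops growth completely.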

Common to all, as to experiment: NCI tumour cell line growth inhibition, 48 h
The subject of assay [1] is RXF-631 renal.
Assay [2] has as its system XF 498 CNS.
Assay [3] concerns SNB-78 CNS.
Assay [4] deals with KM20L2 colon.
The subject of assay [5] is P388/ADR leukemia.
Assay [6] has as its system P388 leukemia.
Assay [7] deals with SN12K1 renal.

Take `CC(C)Cc1ccc(C(C)/C=C2\CCC(CN3CCCC3)C2=O)cc1` (configuration not stated): the TGI in assay [1] was 49.9 µM; in assay [2], 22 µM; in assay [3], 42.5 µM; in assay [4] it was 33.3 µM.

Take `CC(C)c1cccc(C(C)C)c1N=C(N)C#N`: the TGI in assay [1], in assay [2], in assay [3] and in assay [4] was over 100 µM in each case.

With `C[C@@H](NC1CCC[C@@H]1O)c1ccccc1` (some centres not stated), the TGI in assay [2], in assay [3] and in assay [4] was over 100 µM throughout.

With `c1ccc2c(c1)nnn2CNc1ccc(N2CCOCC2)cc1`, the TGI in assay [2], in assay [3] and in assay [4] was over 100 µM in each case.

Take `CCOC(=O)/C(C#N)=C\C=C1/C=CNC2=NCCN21`: the TGI in assay [2], in assay [3] and in assay [4] was over 100 µM in each case.

For the molecule `CC1=C2C(=O)C(C)(C)C=C2C(=O)[C@](C)(O)C12CC2`, the TGI in assay [2], in assay [3] and in assay [4] was over 1 µM throughout.

As for `O=C(c1cc2c(C(F)(F)F)onc2c2ccccc12)C(F)(F)F`, the values for the TGI in assay [1], in assay [3] and in assay [4] were 80.1 µM, 3.82 µM and 25.1 µM, respectively.

Regarding `CCC(O)(c1ccc(OC)cc1)C(c1ccc(OCc2ccccc2)cc1)c1ccc(OCc2ccccc2)cc1` (configuration not stated), the TGI in assay [1], in assay [2], in assay [3] and in assay [4] was over 100 µM in each case.

Regarding `CC(C(=O)c1ccccc1)C1(O)C(=O)Nc2ccccc21` (configuration not stated), the TGI in assay [1], in assay [3] and in assay [4] was over 100 µM in each case.

On to `CCCC1C(=O)C(CC)Cc2c(OC)ccc(OC)c21` (configuration not stated), for which the TGI in assay [1], in assay [2] and in assay [3] was over 100 µM in each case.

For `CCN(CC)CCOC(=O)/C(=C/c1ccc(OC)cc1)c1cc(OC)c(OC)c(OC)c1`, the TGI in assay [1] is over 100 µM; in assay [3] it was over 100 µM; in assay [4], 24.6 µM.

Take `C[C@]12CC(C#N)C(=O)C(O)=C1CC[C@@H]1C2CC[C@@]2(C)C1CC[C@@H]2O` (some centres not stated): the TGI in assay [2], in assay [3] and in assay [4] was over 100 µM each time.

In the case of `CC(Oc1ccc(OCC2CCCCC2)cc1)C(=O)O` (configuration not stated), the TGI in assay [2] and in assay [3] was over 100 µM throughout.

With `CC(=O)O[C@H]1CCC2[C@@H]3CCC4Nc5c(cnn5-c5ccccc5)C[C@]4(C)C3CC[C@@]21C` (some centres not stated), the TGI was 42.2 µM in assay [1], 18.8 µM in assay [2], 63.4 µM in assay [3] and 37.1 µM in assay [4].

As to `N#CC(C(=O)CCC(=O)Nc1ccc(Cl)cc1)c1ccccc1Cl` (configuration not stated), the TGI in assay [1], in assay [2], in assay [3] and in assay [4] was over 100 µM in each case.

For `O=C1NC(=O)C(=O)C(c2nc3ccccc3s2)C1=O`, the TGI in assay [2], in assay [3] and in assay [4] was over 100 µM each time.

Turning to `Cc1ccc(NC(=O)CC/C(CC(=O)c2ccc(Cl)cc2)=N\NC(=O)C(=O)NN)cc1C`, the TGI in assay [2], in assay [3] and in assay [4] was over 100 µM in each case.

With `CCN(CC)C(=O)CNC(=O)OC(C)(C)C`, the TGI in assay [3] and in assay [4] was over 100 µM each time.

`CCCCCCCC(=O)OCC1OC(n2cc(F)c(=O)[nH]c2=O)C(NC(=O)OCc2ccccc2)C(OC(=O)CCCCCCC)C1O` (configuration not stated): the TGI in assay [3] and in assay [4] was over 100 µM throughout.

As for `NNC(=O)CCC(=O)Nc1ccc(Cl)cc1Cl`, the TGI in assay [1], in assay [2], in assay [3] and in assay [4] was over 100 µM each time.

`CC(=O)NC1C(OCc2ccccc2)OC(COC(=O)CCCCCNc2ccc([N+](=O)[O-])c3[nH]c4ccc(O)cc4c(=O)c23)C(O)C1OC(C)C(=O)N[C@@H](C)C(=O)N[C@H](CCC(=O)OCc1ccccc1)C(N)=O` (some centres not stated): the TGI in assay [1] was determined as 5.35 µM; in assay [3] it was 16.3 µM; in assay [4], 0.893 µM.

On to `CC1=C(/C=C/C2=CC(=C\C(=O)O)/CC(C3=C(C)CCCC3(C)C)C2)C(C)(C)CCC1` (configuration not stated), for which the TGI in assay [1] was 24.7 µM; in assay [2], 27.4 µM; in assay [3] it was 41.2 µM.

As for `CCOC(=O)CNC1C(NC(C)=O)C(OC)OC2COC(c3ccccc3)OC21` (configuration not stated), the TGI in assay [1], in assay [3] and in assay [4] was over 100 µM in each case.

Regarding `NC1=NC(c2ccccc2)CC(c2cc(Cl)cc(Br)c2O)=N1` (configuration not stated), the TGI in assay [1] was 39.8 µM; in assay [5], over 27.8 µM; in assay [6], over 20.7 µM; in assay [2], 33.9 µM; in assay [3], 47.7 µM; in assay [7], 28.3 µM. In assay [4], this molecule came in with a TGI of 30.8 µM.

For `COc1cc2ccc(/C(C)=N/OC(C)=O)cc2cc1OC`, the TGI in assay [1], in assay [2], in assay [3] and in assay [4] was over 100 µM each time.

Regarding `O=C(O)CN(c1ccccc1)S(=O)(=O)c1ccc(Cl)cc1`, the TGI in assay [1] and in assay [4] was over 100 µM in each case.

On to `C=CCCC(C)N(C(=O)OC(C)(C)C)S(=O)(=O)c1ccc(C)cc1` (configuration not stated), for which the TGI in assay [2], in assay [3] and in assay [4] was over 100 µM in each case.

In the case of `O=C(N/C(=C\c1ccc([N+](=O)[O-])cc1)c1nc2ccc(Cl)cc2[nH]1)c1ccccc1`, the TGI is 46.5 µM in assay [2], over 100 µM in assay [3] and 50.9 µM in assay [4].

Take `S=P(c1ccccc1)(c1ccccc1)C1(C2(P(=S)(c3ccccc3)c3ccccc3)CC2)CC1`: the TGI in assay [1], in assay [2], in assay [3] and in assay [4] was over 100 µM in each case.

`O=S1c2ccccc2N=C(c2ccc(Cl)cc2)CC1c1cccs1` (configuration not stated): the TGI in assay [3] is over 100 µM; in assay [4] it was 59.6 µM.
